The record followed here is patent US12240844B2 (Voronoi, Inc., priority 2019, dated 2025).

Format in all cases: biochemical
In assay [1] the target is T1, human GST-DYRK1A (full length) (Homo sapiens, UniProt Q13627).
T1 construct: purified human GST-DYRK1A (full length, Thermo scientifics) enzyme; GST; purchased Thermo scientifics
The assay can be described thus: GST-DYRK1A enzyme inhibition, ADP-Glo kinase assay. As to conditions: read-out: DYRK1 IC50. An outline of the steps: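 Full-length human GST-DYRK1A (10 ng) incubated with 10 uM ATP and specific substrate for 1 h at 25° C in 40 mM Tris-HCl pH 7.4, 20 mM MgCl2, 0.5 mg/mL BSA, 50 uM DTT. ADP formation read by ADP-Glo luminescence; IC50 (nM) versus solvent control, triplicate.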
(In general: ADP-Glo turns the ADP formed in a reaction into a luminescent signal.)

For a further assay, the target named is T2, human GST-CLK1 (129-end) (Homo sapiens, UniProt P49759).
T2 construct: purified human GST-CLK1 (129-end, Signalchem) enzyme; GST; purchased Signalchem
T2 sequence (P49759 129-484 limits assumed): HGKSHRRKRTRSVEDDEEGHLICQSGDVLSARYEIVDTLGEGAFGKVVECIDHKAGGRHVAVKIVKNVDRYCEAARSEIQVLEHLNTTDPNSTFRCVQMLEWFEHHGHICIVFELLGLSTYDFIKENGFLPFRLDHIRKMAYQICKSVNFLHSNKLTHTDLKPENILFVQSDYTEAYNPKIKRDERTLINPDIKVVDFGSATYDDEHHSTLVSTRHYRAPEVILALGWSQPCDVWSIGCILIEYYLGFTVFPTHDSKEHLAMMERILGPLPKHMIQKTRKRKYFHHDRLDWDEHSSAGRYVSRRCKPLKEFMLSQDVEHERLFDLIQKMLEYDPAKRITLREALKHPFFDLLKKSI
The assay can be described thus: GST-CLK1 enzyme inhibition, ADP-Glo kinase assay. The conditions noted are these: ATP 10 uM. An outline of the steps:
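GST-CLK1 (129-end, 3 ng) reacted with 10 uM ATP and substrate in 40 mM Tris-HCl pH 7.4, 20 mM MgCl2, 0.5 mg/mL BSA, 50 uM DTT, 1 h at 25° C. ADP-Glo luminescence normalised to solvent control; IC50 from triplicate data.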

The target in another assay is LRRK2 (Homo sapiens, UniProt Q5S007). Nature of the assay: LRRK2 enzyme inhibition, ADP-Glo kinase assay. Also noted: purchased Invitrogen PR8604B. An outline of the steps: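 Purified human LRRK2 (25 ng) in 40 mM Tris-HCl pH7.4, 20 mM MgCl2, 0.5 mg/ml BSA, 50 μM DTT with 10 μM ATP and substrate ([…]), 2 h at 25° C. Final compound 50 to 0.000001024 μM, 12-point dilution. ADP-Glo luminescence vs solvent control; IC50 (nM).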
Sequence of LRRK2 (Q5S007 970-2527 limits assumed): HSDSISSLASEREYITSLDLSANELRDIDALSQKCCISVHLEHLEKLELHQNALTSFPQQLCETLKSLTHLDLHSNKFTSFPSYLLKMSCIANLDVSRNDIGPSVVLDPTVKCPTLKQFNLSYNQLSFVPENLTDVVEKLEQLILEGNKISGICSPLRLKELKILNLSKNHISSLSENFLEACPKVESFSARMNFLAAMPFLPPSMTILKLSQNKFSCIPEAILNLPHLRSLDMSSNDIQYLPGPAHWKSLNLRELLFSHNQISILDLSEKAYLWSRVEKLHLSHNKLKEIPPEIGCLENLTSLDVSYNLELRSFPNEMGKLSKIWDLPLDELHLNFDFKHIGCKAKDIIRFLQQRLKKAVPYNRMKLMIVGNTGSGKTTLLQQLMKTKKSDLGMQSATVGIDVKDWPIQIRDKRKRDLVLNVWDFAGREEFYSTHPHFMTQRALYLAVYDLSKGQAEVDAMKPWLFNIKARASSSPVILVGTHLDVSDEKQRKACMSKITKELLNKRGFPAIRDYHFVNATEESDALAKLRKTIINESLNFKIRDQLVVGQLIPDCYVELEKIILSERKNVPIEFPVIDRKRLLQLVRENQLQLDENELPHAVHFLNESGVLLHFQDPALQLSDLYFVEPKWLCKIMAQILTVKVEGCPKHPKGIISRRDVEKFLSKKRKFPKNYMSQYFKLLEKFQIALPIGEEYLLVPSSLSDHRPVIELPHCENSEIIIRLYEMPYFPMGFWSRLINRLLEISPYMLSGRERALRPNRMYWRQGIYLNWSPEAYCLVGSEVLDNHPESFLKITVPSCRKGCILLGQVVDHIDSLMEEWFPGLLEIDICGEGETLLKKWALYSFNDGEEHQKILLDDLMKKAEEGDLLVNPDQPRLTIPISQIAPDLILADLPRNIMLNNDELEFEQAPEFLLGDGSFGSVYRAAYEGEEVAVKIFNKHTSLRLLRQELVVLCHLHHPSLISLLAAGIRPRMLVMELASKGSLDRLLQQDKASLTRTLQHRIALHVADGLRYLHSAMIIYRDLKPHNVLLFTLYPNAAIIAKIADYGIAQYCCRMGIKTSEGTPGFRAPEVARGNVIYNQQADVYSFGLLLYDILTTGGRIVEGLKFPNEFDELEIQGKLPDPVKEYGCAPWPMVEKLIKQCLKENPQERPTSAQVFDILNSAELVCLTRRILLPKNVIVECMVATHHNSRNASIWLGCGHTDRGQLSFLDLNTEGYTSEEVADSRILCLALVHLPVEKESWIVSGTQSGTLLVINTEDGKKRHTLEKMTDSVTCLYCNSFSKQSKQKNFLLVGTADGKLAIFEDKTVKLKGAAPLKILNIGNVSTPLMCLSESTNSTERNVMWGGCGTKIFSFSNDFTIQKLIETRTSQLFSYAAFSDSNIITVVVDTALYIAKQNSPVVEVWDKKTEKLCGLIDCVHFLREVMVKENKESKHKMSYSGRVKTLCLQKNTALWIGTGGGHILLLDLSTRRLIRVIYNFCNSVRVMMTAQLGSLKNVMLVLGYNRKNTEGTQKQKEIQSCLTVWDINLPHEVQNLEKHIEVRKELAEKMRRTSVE

The target of another assay is LRRK2 (G2019S) (Homo sapiens, UniProt Q5S007, G2019S). Nature of the assay: LRRK2 G2019S enzyme inhibition, ADP-Glo kinase assay. On the set-up: purchased SignalChem L10-12GG. An outline of the steps: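 Purified human LRRK2 G2019S (16 ng) with 25 μM ATP and 0.2 μg substrate, 2 h at 25° C in 40 mM Tris-HCl pH 7.4, 20 mM MgCl2, 0.5 mg/ml BSA, 50 μM DTT; compound at 12 final concentrations from 50 μM downward. ADP-Glo luminescence versus solvent control gave IC50 (nM).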
Sequence of LRRK2 (G2019S) (Q5S007 970-2527 G2019S limits assumed): as the sequence (Q5S007 970-2527 limits assumed) above, with G1050S counted along it

A word on the IC50: it is the concentration needed to halve the response being measured.

Take `CCNc1cc(Nc2ccc(C(=O)N3CCOCC3)c3c2OCO3)nc2[nH]cc(C(F)(F)F)c12` [Example 236, (7-((4-(ethylamino)-3-(trifluoromethyl)-1H-pyrrolo[2,3-b]pyridin-6-yl)amino)benzo[d][1,3]dioxol-4-yl)(morpholino) methanone]: the IC50 in assay [1] is below 100 nM; against human GST-CLK1 (129-end), below 100 nM; against LRRK2 it was below 100 nM; at LRRK2 (G2019S), 101 to 300 nM.
On to `COc1cc(S(C)(=O)=O)ccc1Nc1cc(NCC(C)C)c2c(C(F)(F)F)c[nH]c2n1` [Example 190, N^4-isobutyl-N^6-(2-methoxy-4-(methylsulfonyl)phenyl)-3-(trifluoromethyl)-1H-pyrrolo[2,3-b]pyridine-4,6-diamine], for which the IC50 (in assay [1]; against human GST-CLK1 (129-end); on LRRK2; against LRRK2 (G2019S)) was 301 to 1000 nM throughout.
Take `CCNc1cc(Nc2ccc(P(C)(=O)O)cc2OC)nc2[nH]ccc12` [Example 32, (4-((4-(ethylamino)-1H-pyrrolo[2,3-b]pyridin-6-yl)amino)-3-methoxyphenyl) (methyl)phosphinic acid]: the IC50 (in assay [1]; at human GST-CLK1 (129-end); against LRRK2; against LRRK2 (G2019S)) was 301 to 1000 nM each time.
Take `COc1cc(S(C)(=O)=O)ccc1Nc1cc(NC2CCCC2)c2c(C#N)c[nH]c2n1` [Example 121, 4-(cyclopentylamino)-6-((2-methoxy-4-(methylsulfonyl)phenyl)amino)-1H-pyrrolo[2,3-b]pyridine-3-carbonitrile]: the 50% inhibitory concentration (IC50) in assay [1] was 301 to 1000 nM; at human GST-CLK1 (129-end) it was 301 to 1000 nM; against LRRK2, below 100 nM; against LRRK2 (G2019S), 301 to 1000 nM.
For the compound `CC(C)CNc1cc(Nc2ccc(C(=O)N3CCOCC3)c3c2OCCO3)nc2[nH]cc(C(F)(F)F)c12` [Example 156, (8-((4-(isobutylamino)-3-(trifluoromethyl)-1H-pyrrolo[2,3-b]pyridin-6-yl)amino)-2,3-dihydrobenzo[b] [1,4]dioxin-5-yl)(morpholino) methanone], the IC50 was 301 to 1000 nM in assay [1], 301 to 1000 nM against human GST-CLK1 (129-end), below 100 nM on LRRK2 and 301 to 1000 nM at LRRK2 (G2019S).
For the compound `N#Cc1c[nH]c2nc(Nc3ccc(C(=O)N4CCC(N5CCOCC5)CC4)c4c3OCCO4)cc(NC3CC3)c12` [Example 116, 4-(cyclopropylamino)-6-((8-(4-morpholinopiperidine-1-carbonyl)-2,3-dihydrobenzo [b] [1,4]dioxin-5-yl)amino)-1H-pyrrolo[2,3-b]pyridine-3-carbonitrile], the IC50 is 301 to 1000 nM in assay [1], 101 to 300 nM at human GST-CLK1 (129-end), below 100 nM against LRRK2 and below 100 nM against LRRK2 (G2019S).
`COCCNc1cc(Nc2ccc(C(=O)N3CCOCC3)c3c2OCCO3)nc2[nH]cc(Cl)c12` [Example 62, (8-((3-chloro-4-((2-methoxyethyl)amino)-1H-pyrrolo[2,3-b]pyridin-6-yl)amino)-2,3-dihydrobenzo[b] [1,4]dioxin-5-yl)(morpholino) methanone]: the IC50 in assay [1] was 301 to 1000 nM; at human GST-CLK1 (129-end), 301 to 1000 nM; on LRRK2, below 100 nM; at LRRK2 (G2019S) it was below 100 nM.
In the case of `CCCNc1cc(Nc2ccc(C(=O)N3CCC(N4CCOCC4)CC3)c3c2OCCO3)nc2[nH]cc(C#N)c12` [Example 114, 6-((8-(4-morpholinopiperidine-1-carbonyl)-2,3-dihydrobenzo [b] [1,4]dioxin-5-yl)amino)-4-(propylamino)-1H-pyrrolo[2,3-b]pyridine-3-carbonitrile], the IC50 (in assay [1]; against human GST-CLK1 (129-end); against LRRK2; at LRRK2 (G2019S)) was below 100 nM throughout.
In the case of `COCCNc1cc(Nc2ccc(C(=O)N3CCOCC3)c3c2OCCO3)nc2[nH]cc(C#N)c12` [Example 109, 4-((2-methoxyethyl)amino)-6-((8-(morpholine-4-carbonyl)-2,3-dihydrobenzo[b] [1,4]dioxin-5-yl)amino)-1H-pyrrolo[2,3-b]pyridine-3-carbonitrile], the concentration for half-maximal inhibition (IC50) (in assay [1]; against human GST-CLK1 (129-end); against LRRK2; on LRRK2 (G2019S)) was below 100 nM in each case.
